Patent US9127016B2, “Small molecule inhibitors of Dusp6 and uses therefor” (University of Pittsburgh—Of the Commonwealth System of …, priority 2009, dated 2015)

What was measured:
[1] = target: T1, human Dusp1 (Homo sapiens, UniProt P28562); test: Chemical complementation assay in HeLa cells, pERK restoration, Dusp1-Myc; format: cell-based; details: TPA stimulated
T1 construct: expressed in transfected cells; host or cells: HeLa cells, pcDNA3.1, FuGene 6
T1 sequence (P28562 1-367): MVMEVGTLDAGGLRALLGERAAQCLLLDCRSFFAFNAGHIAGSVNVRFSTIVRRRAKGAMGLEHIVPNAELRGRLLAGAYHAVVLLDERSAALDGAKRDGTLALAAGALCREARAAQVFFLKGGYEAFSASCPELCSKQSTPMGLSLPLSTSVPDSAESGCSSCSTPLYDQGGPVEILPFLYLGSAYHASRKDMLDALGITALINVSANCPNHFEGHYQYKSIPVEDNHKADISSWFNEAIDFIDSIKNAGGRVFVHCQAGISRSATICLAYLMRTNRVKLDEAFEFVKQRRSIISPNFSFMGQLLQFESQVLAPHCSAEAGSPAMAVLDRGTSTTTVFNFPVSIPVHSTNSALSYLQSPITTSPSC
Procedure: (§1) These experiments were carried out essentially as described26. HeLa cells were obtained from ATCC (Manassas, Va.) and maintained in a humidified atmosphere of 5% CO2 at 37° C., Dulbecco's […] (DMEM) supplemented with 10% fetal bovine serum (FBS, HyClone, Logan, Utah), and 1% penicillin-streptomycin (Life Technologies, Inc., Rockville, Md.). c-Myc-Dusp6 and c-Myc-Dusp1 (also known as CL100) (kindly provided by Dr. Stephen Keyse, University of Dundee) were subcloned into pcDNA3.1 for ectopic expression in mammalian cells50. […] Plates were analyzed by three-channel multiparametric analysis for p-ERK and c-Myc-DUSP intensities in an area defined by nuclear staining using the Compartmental Analysis Bioapplication on an ArrayScan II high-content reader (Cellomics, Pittsburgh, Pa.). Restoration of ERK phosphorylation by BCI in Dusp6 overexpressing cells was quantified by Kolmogorov-Smirnov (KS) statistics as described previously using DUSP-transfected and vehicle treated control wells26. One thousand individual cells were gated for Dusp-Myc expression based on c-Myc immunostaining and analyzed for ERK phosphorylation. […] To quantify restoration of Erk phosphorylation in the Dusp expressing cells after compound treatment, KS values for each condition were normalized to the average KS value from four wells transfected with Dusp1 or Dusp6 and treated with vehicle. […]

[2] = system: FGF signaling (d2EGFP reporter); test: BCI analog SAR: d2EGFP intensity in transgenic zebrafish embryos by densitometry; format: in vivo; details: 20 μM, 24 hpf embryos, 6 h; for Activity (BCI = 100): d2EGFP intensity in the dorsal region
Procedure: Transgenic zebrafish embryos (24 hpf) were treated with 20 μM solution of BCI analogs in 0.5% aq DMSO and fluorescence photomicrographs were taken after 6 h. The effectiveness of BCI analogs was evaluated by densitometry (ImageJ) of d2EGFP intensity in the dorsal region.

[3] = target: T2, Dusp6 (Homo sapiens, UniProt Q16828); test: Chemical complementation assay in HeLa cells, pERK restoration, Dusp6-Myc; format: cell-based; design: expressed in transfected cells; host or cells: HeLa cells, pcDNA3.1, FuGene 6; details: TPA stimulated
T2 sequence (Q16828 1-381): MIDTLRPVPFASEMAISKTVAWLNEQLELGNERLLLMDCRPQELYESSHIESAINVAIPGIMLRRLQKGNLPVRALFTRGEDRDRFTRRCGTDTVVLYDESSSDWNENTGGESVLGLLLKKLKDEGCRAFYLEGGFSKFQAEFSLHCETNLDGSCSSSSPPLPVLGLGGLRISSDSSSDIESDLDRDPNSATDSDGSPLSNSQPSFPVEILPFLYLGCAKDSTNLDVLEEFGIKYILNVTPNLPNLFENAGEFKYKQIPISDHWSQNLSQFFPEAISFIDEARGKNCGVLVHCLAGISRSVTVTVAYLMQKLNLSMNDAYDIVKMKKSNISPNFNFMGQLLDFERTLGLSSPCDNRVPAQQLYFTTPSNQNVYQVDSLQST
Procedure: as §1

Row | Structure (SMILES) | IC50 ([1]; 15 min compound, read-out: IC50, Dusp1 inhibition (pERK restoration)) [µM] | Activity (BCI = 100) ([2]; listed as 3 (BCI)) | IC50 ([3]; 15 min compound, read-out: IC50, Dusp6 inhibition (pERK restoration)) [µM] | block of Dusp1 activity in chemical complementation assay [1] | in vivo activity relative to BCI, in words [2] | Activity (BCI = 100) [2] | block of Dusp6 activity in chemical complementation assay [3]
1 | O=C1/C(=C/c2ccccc2)C(NC2CCCCC2)c2ccccc21 (stereo not shown) [Compound 3, (E)-2-benzylidene-3-(cyclohexylamino)-2,3-dihydro-1H-inden-1-one] | 11.2 | 100 | 16 |  |  |  | 
2 | O=C1CC(NC2CCCCC2)c2ccccc21 (stereo not shown) [Compound 17, 3-(Cyclohexylamino)-2,3-dihydro-1H-inden-1-one] |  |  |  | did not block | inactive | 0 | did not block
